Data as given in publication PMC10978157, “Environmental exposure to glyphosate does not inhibit human acetylcholinesterase and butyrylcholinesterase” (Archives of Industrial Hygiene and Toxicology, 2024).

Experiments:
Format in all cases: biochemical
human recombinant AChE [1] = target: T1, human recombinant AChE (Homo sapiens, UniProt P22303); assay: Ellman assay
T1 construct: recombinant human AChE, gift from F. Nachon
Source text: Ellman assay on human recombinant AChE

human recombinant AChE [2] = target: T1, human recombinant AChE; assay: Ellman assay; joint IC50 over all ATCh concentrations; details: read-out: Approx. IC50
Source text: Ellman assay; joint IC50 over all ATCh concentrations on human recombinant AChE

[3] = target: T2, human BChE isolated from plasma (Homo sapiens, UniProt P06276); assay: Ellman assay
T2 construct: native, purified from human plasma, gift from F. Nachon
Source text: Ellman assay on human BChE isolated from plasma

[4] = target: T2, human BChE isolated from plasma; assay: Ellman assay; joint IC50 over all ATCh concentrations; details: read-out: Approx. IC50
Source text: Ellman assay; joint IC50 over all ATCh concentrations on human BChE isolated from plasma

T2 sequence (P06276 29-602): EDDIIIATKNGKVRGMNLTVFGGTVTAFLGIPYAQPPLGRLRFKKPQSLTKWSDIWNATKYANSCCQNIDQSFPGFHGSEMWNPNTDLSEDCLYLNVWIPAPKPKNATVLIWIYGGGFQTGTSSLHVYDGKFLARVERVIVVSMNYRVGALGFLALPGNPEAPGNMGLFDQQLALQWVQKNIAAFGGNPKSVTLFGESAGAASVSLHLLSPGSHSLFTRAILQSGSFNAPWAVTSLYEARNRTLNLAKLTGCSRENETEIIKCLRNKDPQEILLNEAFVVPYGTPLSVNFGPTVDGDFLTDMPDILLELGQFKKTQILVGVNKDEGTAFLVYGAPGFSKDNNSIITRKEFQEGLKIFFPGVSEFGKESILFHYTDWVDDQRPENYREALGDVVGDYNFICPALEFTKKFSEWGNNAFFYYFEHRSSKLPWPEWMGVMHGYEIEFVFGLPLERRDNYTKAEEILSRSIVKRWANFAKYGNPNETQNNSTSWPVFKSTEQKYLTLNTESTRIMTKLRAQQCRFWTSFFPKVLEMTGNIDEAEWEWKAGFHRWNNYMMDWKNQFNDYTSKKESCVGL
T1 sequence (P22303 32-614): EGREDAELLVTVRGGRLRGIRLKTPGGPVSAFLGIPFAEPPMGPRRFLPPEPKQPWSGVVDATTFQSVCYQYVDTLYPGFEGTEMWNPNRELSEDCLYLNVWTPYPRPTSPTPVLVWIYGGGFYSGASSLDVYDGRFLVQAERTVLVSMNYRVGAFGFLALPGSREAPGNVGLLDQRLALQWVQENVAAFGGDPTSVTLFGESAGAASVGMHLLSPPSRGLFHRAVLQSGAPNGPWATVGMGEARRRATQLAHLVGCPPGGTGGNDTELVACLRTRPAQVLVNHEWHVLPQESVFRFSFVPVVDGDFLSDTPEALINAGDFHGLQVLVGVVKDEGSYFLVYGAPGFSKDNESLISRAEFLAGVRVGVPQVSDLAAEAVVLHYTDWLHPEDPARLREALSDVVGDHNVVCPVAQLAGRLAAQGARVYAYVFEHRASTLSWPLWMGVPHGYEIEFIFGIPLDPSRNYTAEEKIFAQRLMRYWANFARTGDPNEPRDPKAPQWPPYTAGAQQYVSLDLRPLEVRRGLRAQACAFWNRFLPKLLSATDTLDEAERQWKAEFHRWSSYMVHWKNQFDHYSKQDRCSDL

SMILES: O=C(O)CNCP(=O)(O)O [glyphosate, N-(phosphonomethyl)glycine]
- Ki (human recombinant AChE [1]): 28.4 ± 2.7 mM
- IC50 (human recombinant AChE [2]): ~25.1 mM
- Ki [3]: 19.3 ± 1.8 mM
- IC50 [4]: ~20 mM
